Experimental data reported in patent US7759345B2, “Antitumoral derivatives of ET-743” (priority 2001, dated 2010).
Where two headings read alike, the source gives them in different places.

What was measured:
A-549 = test: Inhibition of cell growth by counting cells, A-549; assay type: cell-based, human; conditions: three days of incubation, read-out: IC50 (molar) A-549
Protocol: (§1) 1°.—Inhibition of Cell Growth by Counting Cells.
(§2) This form of the assay employs 24 well multidishes of 16 mm diameter (Bergeron, 1984; Schroeder, 1981). The tumor cell lines employed are: P-388 (ATCC CCL 46), suspension culture of a lymphoid neoplasm from a DBA/2 mouse; A-549 (ATCC CCL 185), monolayer culture of a human lung carcinoma; HT-29 (ATCC HTB-38), monolayer culture of a human colon carcinoma; MEL-28 (ATCC HTB-72), monolayer culture of a human melanoma and DU-145 (ATCC HTB-81), monolayer culture of a human prostate carcinoma.
(§3) Cells were maintained, in logarithmic phase of growth in Eagle's Minimum Essential Medium, with Earle's Balanced Salts, with non-essential amino acids, with 2.0 mM L-Glutamine, without sodium bicarbonate (EMEM/neaa), supplemented with 10% Fetal Calf Serum (FCS), 10^−2 M. sodium bicarbonate and 0.1 U/l penicillin G+0.1 g/l streptomycin sulfate. For the experiments, cells are harvested from subconfluent cultures using trypsin and resuspended in fresh medium before plating.
(§4) A-549, HT-29, MEL-28 and DU-145 cells were seeded into 16 mm diameter wells at 1×10^4 cells per well in 1 ml aliquots of EMEM 5% FCS containing different concentrations of the sample to be tested. A separate set of cultures without drug was seeded as control of growth, to ensure that cells remained in exponential phase of growth. All determinations are carrying out in duplicate. After three days of incubation at 37° C., 5% CO2 in a 98% humid atmosphere cells were stained with 0.1% crystal violet. An approximately IC50 was determined by comparing the growth in wells with drug to the growth in wells control.
(§5) For quantifying the activity, after the incubation time, cells are trypsinized and counted in a Coulter Counter ZM. All counts (net cells per well), represent the average of duplicate wells. % G, percent of growth relative to cultures without drug. The results of these assays are used to generate dose-response curves from which more precise IC50 values are determined (sample concentration which produces 50% cell growth inhibition).
(§6) Obtained results may predict the usefulness of a certain drug as a potential cancer treatment. For this technique, compounds which show IC50 values smaller than 1 μg/ml are selected to continue with further studies. IC50's data allow to predict that not only could a drug be cystostatic, but also it could have a potential in terms of tumor reduction.

HT-29 = test: Inhibition of cell growth by counting cells, HT-29; assay type: cell-based, human; conditions: three days of incubation, read-out: IC50 (molar) HT-29
Protocol: as §1, §2, §3, §4, §5, §6

| SMILES | IC50 (A-549; Homo sapiens, A549, 72 h) | IC50 (HT-29; Homo sapiens, HT-29, 72 h) | IC50 (A-549) | IC50 (HT-29) |
| --- | --- | --- | --- | --- |
| COc1cc2c(cc1OC(=O)OC(C)(C)C)CCN[C@]21CS[C@@H]2c3c(OC(=O)CCCl)c(C)c4c(c3[C@H](COC1=O)N1C2[C@H]2c3c(cc(C)c(OC)c3O)C[C@@H]([C@@H]1C#N)N2C)OCO4 (stereo partly drawn) [Compound 116] | 0.109 nM | 0.109 nM |  |  |
| COc1cc2c(cc1OC(=O)OC(C)(C)C)CCN[C@]21CS[C@@H]2c3c(OC)c(C)c4c(c3[C@H](COC1=O)N1C2[C@H]2c3c(cc(C)c(OC)c3O)C[C@@H]([C@@H]1C#N)N2C)OCO4 (stereo partly drawn) [Compound 126] |  |  | 0.119 nM | 0.119 nM |
| COc1cc2c(cc1OC(=O)OC(C)(C)C)CCN[C@]21CS[C@@H]2c3c(OC)c(C)c4c(c3[C@H](COC1=O)N1C2[C@H]2c3c(cc(C)c(OC)c3OC)C[C@@H]([C@@H]1C#N)N2C)OCO4 (stereo partly drawn) [Compound 127] |  |  | 0.117 nM | 0.117 nM |
| CCOc1c(C)c2c(c3c1[C@H]1SC[C@]4(NCCc5cc(OC(=O)OC(C)(C)C)c(OC)cc54)C(=O)OC[C@@H]3N3C1[C@H]1c4c(cc(C)c(OC)c4O)C[C@@H]([C@@H]3C#N)N1C)OCO2 (stereo partly drawn) [Compound 128] | 1.17 nM | 1.17 nM |  |  |
| CCOc1c(C)c2c(c3c1[C@H]1SC[C@]4(NCCc5cc(OC(=O)OC(C)(C)C)c(OC)cc54)C(=O)OC[C@@H]3N3C1[C@H]1c4c(cc(C)c(OC)c4OCC)C[C@@H]([C@@H]3C#N)N1C)OCO2 (stereo partly drawn) [Compound 129] | 11.3 nM | 11.3 nM |  |  |
| CCCOc1c(C)c2c(c3c1[C@H]1SC[C@]4(NCCc5cc(OC(=O)OC(C)(C)C)c(OC)cc54)C(=O)OC[C@@H]3N3C1[C@H]1c4c(cc(C)c(OC)c4O)C[C@@H]([C@@H]3C#N)N1C)OCO2 (stereo partly drawn) [Compound 130] | 1.15 nM | 1.15 nM |  |  |
| CCCOc1c(C)c2c(c3c1[C@H]1SC[C@]4(NCCc5cc(OC(=O)OC(C)(C)C)c(OC)cc54)C(=O)OC[C@@H]3N3C1[C@H]1c4c(cc(C)c(OC)c4OCCC)C[C@@H]([C@@H]3C#N)N1C)OCO2 (stereo partly drawn) [Compound 131] | 110 nM | 110 nM |  |  |
| C=CCOc1c(C)c2c(c3c1[C@H]1SC[C@]4(NCCc5cc(OC(=O)OC(C)(C)C)c(OC)cc54)C(=O)OC[C@@H]3N3C1[C@H]1c4c(cc(C)c(OC)c4O)C[C@@H]([C@@H]3C#N)N1C)OCO2 (stereo partly drawn) [Compound 132] | 1.15 nM | 1.15 nM |  |  |
| C=CCOc1c(C)c2c(c3c1[C@H]1SC[C@]4(NCCc5cc(OC(=O)OC(C)(C)C)c(OC)cc54)C(=O)OC[C@@H]3N3C1[C@H]1c4c(cc(C)c(OC)c4OCC=C)C[C@@H]([C@@H]3C#N)N1C)OCO2 (stereo partly drawn) [Compound 133] | 110 nM | 110 nM |  |  |
| COc1cc2c(cc1O)CCN[C@]21CS[C@@H]2c3c(OC(=O)/C=C/c4ccccc4)c(C)c4c(c3[C@H](COC1=O)N1C2[C@H]2c3c(cc(C)c(OC)c3OC(=O)/C=C/c3ccccc3)C[C@@H]([C@@H]1C#N)N2C)OCO4 (stereo partly drawn) [Compound 138] | 1.01 nM | 1.01 nM |  |  |
| CCCC(=O)Oc1c(C)c2c(c3c1[C@H]1SC[C@]4(NCCc5cc(O)c(OC)cc54)C(=O)OC[C@@H]3N3C1[C@H]1c4c(cc(C)c(OC)c4O)C[C@@H]([C@@H]3C#N)N1C)OCO2 (stereo partly drawn) [Compound 139] | 1.25 nM | 1.25 nM |  |  |
| CCCC(=O)Oc1c(C)c2c(c3c1[C@H]1SC[C@]4(NCCc5cc(O)c(OC)cc54)C(=O)OC[C@@H]3N3C1[C@H]1c4c(cc(C)c(OC)c4OC(=O)CCC)C[C@@H]([C@@H]3C#N)N1C)OCO2 (stereo partly drawn) [Compound 140] | 1.15 nM | 1.15 nM |  |  |
| C=CCOC(=O)Oc1c(C)c2c(c3c1[C@H]1SC[C@]4(NCCc5cc(O)c(OC)cc54)C(=O)OC[C@@H]3N3C1[C@H]1c4c(cc(C)c(OC)c4O)C[C@@H]([C@@H]3C#N)N1C)OCO2 (stereo partly drawn) [Compound 141] |  |  | 0.123 nM | 0.123 nM |
| COc1cc2c(cc1O)CCN[C@]21CS[C@@H]2c3c(OC(=O)CCCl)c(C)c4c(c3[C@H](COC1=O)N1C2[C@H]2c3c(cc(C)c(OC)c3O)C[C@@H]([C@@H]1C#N)N2C)OCO4 (stereo partly drawn) [Compound 142] | 1.22 nM | 1.22 nM |  |  |
| CCCCCCCC(=O)Oc1c(C)c2c(c3c1[C@H]1SC[C@]4(NCCc5cc(O)c(OC)cc54)C(=O)OC[C@@H]3N3C1[C@H]1c4c(cc(C)c(OC)c4OC(=O)CCCCCCC)C[C@@H]([C@@H]3C#N)N1C)OCO2 (stereo partly drawn) [Compound 145] | 102 nM | 102 nM |  |  |
| COc1cc2c(cc1O)CCN[C@]21CS[C@@H]2c3c(OC)c(C)c4c(c3[C@H](COC1=O)N1C2[C@H]2c3c(cc(C)c(OC)c3O)C[C@@H]([C@@H]1C#N)N2C)OCO4 (stereo partly drawn) [Compound 149] | 0.135 nM | 0.135 nM |  |  |
| COc1cc2c(cc1O)CCN[C@]21CS[C@@H]2c3c(OC)c(C)c4c(c3[C@H](COC1=O)N1C2[C@H]2c3c(cc(C)c(OC)c3OC)C[C@@H]([C@@H]1C#N)N2C)OCO4 (stereo partly drawn) [Compound 150] | 1.32 nM | 1.32 nM |  |  |
| CCOc1c(C)c2c(c3c1[C@H]1SC[C@]4(NCCc5cc(O)c(OC)cc54)C(=O)OC[C@@H]3N3C1[C@H]1c4c(cc(C)c(OC)c4O)C[C@@H]([C@@H]3C#N)N1C)OCO2 (stereo partly drawn) [Compound 151] | 0.132 nM | 0.132 nM |  |  |
| CCOc1c(C)c2c(c3c1[C@H]1SC[C@]4(NCCc5cc(O)c(OC)cc54)C(=O)OC[C@@H]3N3C1[C@H]1c4c(cc(C)c(OC)c4OCC)C[C@@H]([C@@H]3C#N)N1C)OCO2 (stereo partly drawn) [Compound 152] | 12.8 nM | 12.8 nM |  |  |
| CCCOc1c(C)c2c(c3c1[C@H]1SC[C@]4(NCCc5cc(O)c(OC)cc54)C(=O)OC[C@@H]3N3C1[C@H]1c4c(cc(C)c(OC)c4O)C[C@@H]([C@@H]3C#N)N1C)OCO2 (stereo partly drawn) [Compound 153] |  |  | 0.13 nM | 0.13 nM |
| C=CCOc1c(C)c2c(c3c1[C@H]1SC[C@]4(NCCc5cc(O)c(OC)cc54)C(=O)OC[C@@H]3N3C1[C@H]1c4c(cc(C)c(OC)c4O)C[C@@H]([C@@H]3C#N)N1C)OCO2 (stereo partly drawn) [Compound 155] | 1.3 nM | 1.3 nM |  |  |
| C=CCOc1c(C)c2c(c3c1[C@H]1SC[C@]4(NCCc5cc(O)c(OC)cc54)C(=O)OC[C@@H]3N3C1[C@H]1c4c(cc(C)c(OC)c4OCC=C)C[C@@H]([C@@H]3C#N)N1C)OCO2 (stereo partly drawn) [Compound 156] | 12.4 nM | 12.4 nM |  |  |
| COc1cc2c(cc1O)CCN[C@]21CS[C@@H]2c3c(OCc4ccccc4)c(C)c4c(c3[C@H](COC1=O)N1C2[C@H]2c3c(cc(C)c(OC)c3O)C[C@@H]([C@@H]1C#N)N2C)OCO4 (stereo partly drawn) [Compound 157] | 0.122 nM | 0.122 nM |  |  |
| COc1cc2c(cc1O)CCN[C@]21CS[C@@H]2c3c(OCc4ccccc4)c(C)c4c(c3[C@H](COC1=O)N1C2[C@H]2c3c(cc(C)c(OC)c3OCc3ccccc3)C[C@@H]([C@@H]1C#N)N2C)OCO4 (stereo partly drawn) [Compound 158] | 1.1 nM | 1.1 nM |  |  |
| COc1cc2c(cc1O)CCN[C@]21CS[C@@H]2c3c(OC(=O)C(F)(F)F)c(C)c4c(c3[C@H](COC1=O)N1C2[C@H]2c3c(cc(C)c(OC)c3OC(=O)C(F)(F)F)C[C@@H]([C@@H]1C#N)N2C)OCO4 (stereo partly drawn) [Compound 160] | 1.09 nM | 1.09 nM |  |  |
| COc1cc2c(cc1O)CCN[C@]21CS[C@@H]2c3c(OC(=O)/C=C/c4ccccc4)c(C)c4c(c3[C@H](COC1=O)N1C2[C@H]2c3c(cc(C)c(OC)c3OC(=O)/C=C/c3ccccc3)C[C@@H]([C@@H]1O)N2C)OCO4 (stereo partly drawn) [Compound 162] | 5.1 nM | 5.1 nM |  |  |
| CCCC(=O)Oc1c(C)c2c(c3c1[C@H]1SC[C@]4(NCCc5cc(O)c(OC)cc54)C(=O)OC[C@@H]3N3C1[C@H]1c4c(cc(C)c(OC)c4OC(=O)CCC)C[C@@H]([C@@H]3O)N1C)OCO2 (stereo partly drawn) [Compound 164] | 11.6 nM | 11.6 nM |  |  |
